From article PMC4721142, “Randomized controlled studies on the efficacy of antiarthritic agents in inhibiting cartilage degeneration and pain associated with progression of osteoarthritis in the rat” (Arthritis Research & Therapy, 2016)
Where two headings read alike, the source gives them in different places.

Tests used:
NF-κB [1] = experiment: TNF-α-stimulated NF-κB dual luciferase reporter assay in HeLa cells; assay type: cell-based
Method: NF-κB activity was assessed using a previously described dual plasmid reporter system. HeLa cells were transfected with NF-κB luciferase (Stratagene Products Division, Agilent Technologies, La Jolla, CA, USA) and pRLuc-N3 (PerkinElmer, Waltham, MA, USA) at an 8:1 ratio, respectively, in triplicate. […] NF-κB activity was measured 5 h later with a Dual-Glo Luciferase Assay (Promega, Madison, WI, USA) and an Omni plate reader (BMG Labtech, Cary, NC, USA). The ratio of firefly luciferase luminescence (NF-κB reporter) to Renilla luciferase luminescence (control) was normalized for the number of viable transfected cells. Data are reported as a ratio of activity of viable treated cells over the activity of cells not exposed to TNF-α or drug (fold stimulation above basal untreated levels of activity). The viability of HeLa cells with and without drug was also measured using a CellTiter-Glo luminescent viability assay (Promega). […]
NF-κB activity was assessed in HeLa cells that were transiently transfected with two reporter constructs as described in the manuscript. Agents were tested for their ability to block TNF- […]
Expression of the luciferase from the Renilla construct was used as a measure of viability, which was confirmed with a cytotoxicity assay (see later section).

HeLa cells = experiment: HeLa cell viability (CellTiter-Glo)
Method: NF-κB activity was assessed using a previously described dual plasmid reporter system. HeLa cells were transfected with NF-κB luciferase (Stratagene Products Division, Agilent Technologies, La Jolla, CA, USA) and pRLuc-N3 (PerkinElmer, Waltham, MA, USA) at an 8:1 ratio, respectively, in triplicate. […] NF-κB activity was measured 5 h later with a Dual-Glo Luciferase Assay (Promega, Madison, WI, USA) and an Omni plate reader (BMG Labtech, Cary, NC, USA). The ratio of firefly luciferase luminescence (NF-κB reporter) to Renilla luciferase luminescence (control) was normalized for the number of viable transfected cells. Data are reported as a ratio of activity of viable treated cells over the activity of cells not exposed to TNF-α or drug (fold stimulation above basal untreated levels of activity). The viability of HeLa cells with and without drug was also measured using a CellTiter-Glo luminescent viability assay (Promega).
In Vitro Hela Cell Drug Toxicity Testing
Potential drug toxicity was measured using a CTG assay and HeLa cells (Promega). Drugs not tested in
this assay were tested in either of the in vitro toxicity assays already presented (synovial or chondrocyte
Table 3- Drug toxicity measured using a CTG assay and HeLa cells.

[2] = Comparison of in vitro screens: overlapping effective and nontoxic range; conditions: for Overlapping effective and nontoxic range: inhibits with minimal or no toxicity to synovium or cartilage, overlapping range if effective in more than one assay;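 on all read-outs here: compares non-toxic ranges in synovial cells and chondrocytes with effective ranges against NFkB, MMP-13 and osteoclasts, giving their overlap as the predicted efficacy range in uM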
[3] = published half-life; cited from earlier work
IKK-2 = conditions: reported; cited from earlier work
IKK-1 = conditions: reported, cited from earlier work
[4] = system: Normal human articular chondrocytes; experiment: Cytotoxicity to chondrogenic pellets (CellTiter-Blue)
Method: (§1) Differentiated chondrogenic pellets were used both to test the ability of drugs to block MMP-13 activity and to test for drug toxicity. […] Supernatants were collected and analyzed for MMP-13 using an enzyme-linked immunosorbent assay (GE Healthcare Life Sciences, Little Chalfont, UK). Cytotoxicity to pellets was assessed using CellTiter-Blue (Promega).

SW982 [5] = experiment: Synovial toxicity (CellTiter-Glo), with or without TNF-α
Method: (§2) Viability was measured with the CellTiter-Glo luminescent viability assay (Promega). […] To more accurately predict the effects of the drugs on osteoarthritic synovium, cells were tested with or without TNF-α (20 ng/ml; BioSource).
(§3) In Vitro Toxicity Testing with a Synovial Cell Line
(§4) Compounds were tested for synovial toxicity using SW982 cells alone or in the presence of TNF as

RAW 264.7 cells = experiment: RANKL-mediated osteoclastogenesis / matrix resorption (Osteologic) assay; assay type: cell-based, murine
Method in brief: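 Agents were tested during or after differentiation. Wells were bleached and resorption pits were quantified by image analysis versus RANKL-only controls, using an unpaired t-test.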

MMP-13 = MMP-13 ELISA on supernatants of TNF-α-treated chondrogenic pellets; assay type: cell-based, human
[6] = system: Normal human articular chondrocytes
Method: as §1

SW982 [7] = system: SW982
Method: as §2, §3, §4

NF-κB [8] = conditions: reportedly; cited from earlier work
IκBα phosphorylation = system: IκBα phosphorylation; set-up: method as in PMID 18849610; conditions: reported; read-out: IC50 for block of IκBα phosphorylation; cited from earlier work
TNF-α in human monocytes = system: TNF-α in human monocytes; set-up: method as in PMID 15316093; conditions: reported; read-out: IC50, inhibits TNF-α in human monocytes; cited from earlier work
[9] = system: IL-8 and IL-6 in synovial fibroblasts; set-up: method as in PMID 15316093; conditions: reported; read-out: IC50, blocks IL-8 and IL-6 in synovial fibroblasts; cited from earlier work
[10] = system: rat inflammatory arthritis model; set-up: method as in per Calbiochem; conditions: 30 mg/kg; ref per Calbiochem; cited from earlier work

Structure (SMILES)	Effective against NF κβ (p<0.05) (NF-κB [1])	Inhibition of NF-κB at the concentrations tested (NF-κB [1])	Non-toxic concentrations (HeLa cells)	Non-toxic & predicted range of efficacy [2]	Overlapping effective and nontoxic range [2]	IC50 (IKK-2)	Non-toxic range (Chondrocyte) [4]	Non-toxic range (Synovial) (SW982 [5])	Effective range against MMP-13 (MMP-13)	other results
Cc1ccc2nc(NCCN)c3ncc(C)n3c2c1 [BMS-345541]	1 to 15.6 µM	failed to inhibit	0.24 to 15.6 µM	0.24 to 7.8 µM	0.244 µM	300 nM	0.24 to 15.6 µM	0.24 to 7.8 µM	–	t 1/2 [3]: 2.2 h; IC50 (IKK-1): 4000 nM
[C-]#[O+].[C-]#[O+].[C-]#[O+].[C-]#[O+].[C-]#[O+].[C-]#[O+].[Cl][Ru][Cl].[Cl][Ru][Cl] [CORM-2, tricarbonyldichlororuthenium(II) dimer]	–	–	–	20 to 40 µM	20–40+ μM	–	–	–	10 – 40 M	Lowest inhibitory concentration, matrix resorption (RAW 264.7 cells): 20 µM; Non-toxic range (Chondrocyte) [6]: 0.625 to 40 M; Non-toxic range (Synovial) (SW982 [7]): 2.5 to 40 M
O=C1C(=Cc2ccccc2F)CNCC1=Cc1ccccc1F [Curcumin-14, 3,5-bis(2-flurobenzylidene)piperidin-4-one]	–	–	–	2.5 to 10 µM	2.5 to 10 µM	–	–	–	≥ 0.625 µM	Effective range against NFkB (NF-κB [1]): ≥ 2.5 µM; Effective range against Osteoclasts (RAW 264.7 cells): Not effective; times more potent than curcumin (NF-κB [8]): Reportedly 10 times more potent than curcumin Inhibits NF-κB by inhibiting IκB kinase (IKK) [82] Potent anticarcinogenic activity inducing death of lung, breast, ovarian, and cervical cancer cells [82]
O=C(Nc1cc(C(F)(F)F)cc(C(F)(F)F)c1)c1cc(Cl)ccc1O [IKK inhibitor V, N-(3,5-bis-trifluoromethyl-phenyl)-5-chloro-2-hydroxy-benzamide]	Only at toxic	–	None	1.625 to 26 µM	1.625 to 26 µM	–	–	–	–	Toxic concentrations (p<0.05) (HeLa cells; human): 0.101 to 26 M; IC50 (IκBα phosphorylation): 250 nM; Non-toxic range (Chondrocyte) ([4]; male, human, 24 h): 0.4 to 13 µM; Non-toxic range (Synovial) (SW982 [5]; human): 0.1 to 0.2 µM
N#Cc1c(C2CCNCC2)cc(-c2c(O)cccc2OCC2CC2)nc1N [IKK inhibitor VIII, 2-amino-6-(2-(cyclopropylmethoxy)-6-hydroxyphenyl)-4-(4-piperidinyl)-3-pyridinecarbonitrile]	–	–	–	2 to 4 µM	4 (toxicity to synovial cells) μM	8.5 nM	0.25 to 16 µM	0.3 to 2 µM	–	minimal effective concentration (RAW 264.7 cells; Mus musculus, RAW264.7, 168 h, read-out: Lowest inhibitory concentration, matrix resorption): 0.5 µM; IC50 (IKK-1; ref per Calbiochem): 250 nM
NC(=O)Nc1sc(-c2ccc(F)cc2)cc1C(N)=O [IKK-2 inhibitor IV, [5-(p-Fluorophenyl)-2-ureido]thiophene-3-carboxamide]	Not consistently	[…]	[…]	–	–	[…]	–	[…]	–	Toxic concentrations (p<0.05) (HeLa cells): […]; IC50 (TNF-α in human monocytes): 150 to 2500 nM; IC50 [9]: 100 nM; Reduced paw edema [10]: ~100%
